Each structure is given as a SMILES string.

The target in test [1] is Mfd (Salmonella typhimurium, UniProt Q8ZQ01). Briefly: Binding affinity analysis by microscale thermophoresis. On the set-up: species or system S. typhimurium. The settings on record: labeled Mfd 50 nM. As for the experimental part:
FIGS. 2A-2D depict how ARM-1 affects Mfd's biochemical activity. FIG. 2A depicts how the kd of ARM-1 was determined using microscale thermophoresis. Data shown represent a minimum of three independent experiments. FIG. 2B depicts a NADH-coupled ATPase assay. ATP hydrolysis by Mfd was coupled to NADH oxidation. Phosphoenolpyruvate is converted to pyruvate by pyruvate kinase, transferring a phosphate group onto ADP, which is only present in the reaction following ATP hydrolysis by Mfd. Pyruvate is then converted to lactate by lactate dehydrogenase, oxidizing NADH to NAD^+. Absorbance at 340 nm by NADH is used to monitor the reaction. Data shown represent a minimum of 3 biological replicates. FIG. 2C depicts a transcription roadblock assay. A P32-labled 176 bp PCR fragment was incubated with E. coli RNAP along with saturating concentrations of ATP, GTP, and UTP. 100 nM S. typhimurium ST19 Mfd preincubated with indicated concentrations of ARM-1 was added and the reaction allowed to proceed for 6 minutes. DNA products were then resolved on a polyacrylamide gel and analyzed by phosphorimaging. […] Quantification of these gels is shown below each lane. […]
Microscale thermophoresis was performed on a Monolith (NanoTemper). […] MST experiments were performed under default settings apart from fluorescence intensity set to 100%. […]
For orientation: Microscale thermophoresis detects binding through changes in fluorescence in a small temperature gradient.

Test [2] concerns S. typhimurium ST19. Briefly: Luria-Delbruck fluctuation assay. The settings on record: 100 μM ARM-1, plated on 80 ng/ml ciprofloxacin. The format is cell-based. The procedure:
(§1) FIGS. 3A-3C depict how ARM-1 reduces mutation frequency in culture and during infection. FIG. 3A depicts a Luria-Delbruck fluctuation assay with ARM-1 treatment. Single colonies of WT and Δmfd S. typhimurium ST19 were used to inoculate overnight cultures with appropriate antibiotic selection. Cultures were then diluted back to OD600 0.0005 and grown to OD600 0.5 with or without 100 μM ARM-1 treatment. Samples were plated on 80 ng/ml ciprofloxacin and grown overnight, then enumerated the following day. Data shown are the result of a minimum of 50 replicates. FIG. 3B depicts the invasion and infection efficiency in the presence of ARM-1. WT S. typhimurium ST19 in mid-log phase growth was used to infect HeLa cells. Invasion was allowed to proceed for 1 hour before uninternalized bacteria were removed and fresh media applied, containing vehicle control or 31.25 μM ARM-1. At the indicated timepoints, HeLa cells were lysed using 1% Triton-H2O and intracellular bacteria serially diluted and plated on LB for CFU enumeration. FIG. 3C depicts mutation frequency post mammalian cell infection. WT and Δmfd S. typhimurium ST19 were used to infect HeLa cells as described in FIG. 3B. Following infection, intracellular bacteria were harvested and plated on 50 μg/mL 5-fluorocytosine and grown overnight. Mutants were enumerated the following morning. […]

For test [3], the system named is S. typhimurium ST19. Kind of test: Invasion and infection efficiency in HeLa cells. In kind it is cell-based. The settings on record: 31.25 μM ARM-1, compared to untreated WT. As for the experimental part:
as §1

Test [4] deals with S. typhimurium. Kind of test: Growth curves with increasing concentrations of ARM-1. The format is cell-based. As for the experimental part:
(§2) FIG. 10 depicts growth curves of indicated species in the presence of increasing concentrations of ARM-1. Precultures of each species were grown with appropriate antibiotic selection, then diluted back to OD600 0.05 in a 96 well plate. Indicated concentrations of ARM-1 were added, and plates incubated overnight at 37° C. with shaking. OD measurements taken every 60 s by BioTek plate reader. Data shown are representative of at least 6 biological replicates. Growth curve for S. typhimurium also confirms MIC of 400 μM ARM-1 for this species, with no growth observed over the experimental timeframe.

The test system of test [5] is all species tested. Described as above. The format is cell-based. The settings on record: across all species tested. As for the experimental part:
as §2

Chain of Mfd (Q8ZQ01 entry or part of it): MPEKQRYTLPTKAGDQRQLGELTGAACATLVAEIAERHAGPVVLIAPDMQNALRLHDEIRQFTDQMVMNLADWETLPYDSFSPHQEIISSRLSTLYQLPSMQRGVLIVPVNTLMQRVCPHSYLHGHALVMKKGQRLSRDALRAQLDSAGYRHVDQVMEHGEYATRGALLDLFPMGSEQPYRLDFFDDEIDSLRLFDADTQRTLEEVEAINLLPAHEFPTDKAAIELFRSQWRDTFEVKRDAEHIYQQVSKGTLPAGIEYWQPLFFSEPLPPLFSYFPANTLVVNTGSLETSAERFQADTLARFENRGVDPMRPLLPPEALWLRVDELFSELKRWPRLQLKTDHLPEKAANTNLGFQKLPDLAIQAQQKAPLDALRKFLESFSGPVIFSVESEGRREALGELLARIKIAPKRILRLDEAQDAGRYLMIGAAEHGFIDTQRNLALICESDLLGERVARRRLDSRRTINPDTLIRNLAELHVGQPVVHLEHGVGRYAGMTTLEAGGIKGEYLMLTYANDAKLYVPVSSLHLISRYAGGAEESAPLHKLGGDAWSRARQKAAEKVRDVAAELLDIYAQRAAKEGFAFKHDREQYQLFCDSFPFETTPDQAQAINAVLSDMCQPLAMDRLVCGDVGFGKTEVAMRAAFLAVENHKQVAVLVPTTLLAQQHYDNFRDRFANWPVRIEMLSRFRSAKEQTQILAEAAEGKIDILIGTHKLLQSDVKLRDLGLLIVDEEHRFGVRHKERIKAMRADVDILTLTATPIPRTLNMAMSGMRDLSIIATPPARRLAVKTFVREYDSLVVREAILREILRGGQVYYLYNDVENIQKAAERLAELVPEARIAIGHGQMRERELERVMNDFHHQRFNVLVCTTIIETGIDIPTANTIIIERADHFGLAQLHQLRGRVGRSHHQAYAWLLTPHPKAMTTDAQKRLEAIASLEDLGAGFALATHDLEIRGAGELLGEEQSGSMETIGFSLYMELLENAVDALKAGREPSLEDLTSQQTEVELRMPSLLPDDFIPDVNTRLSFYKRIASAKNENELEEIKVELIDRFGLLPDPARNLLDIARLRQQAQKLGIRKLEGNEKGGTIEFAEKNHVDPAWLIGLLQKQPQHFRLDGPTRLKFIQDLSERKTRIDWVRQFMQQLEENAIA

Consider `Cc1cc(Br)ccc1-c1ccc(CNCCCN(C)C)o1` [ARM-1, N^1-((5-(4-bromo-2-methylphenyl)furan-2-yl)methyl)-N^3,N^3-dimethylpropane-1,3-diamine], for which the affinity in test [1], expressed as Kd, was 4.25 µM. Further, the “reduction in WT mutation frequency” value in test [2] worked out at 3 fold. In test [3], the “defect in invasion or proliferation in HeLa cells” value is “Neither the Δmfd mutant nor ARM-1 or solvent-treated wild-type or Δmfd strains show a defect in invasion or proliferation”. Moreover, the MIC (usually the lowest concentration that inhibits growth of the organism) in test [4] (Salmonella enterica, TYPHIMURIUM, growth curve, no growth observed over the experimental timeframe) came out at 400 µM. In addition, the growth defects result in test [4] (at the ARM-1 concentrations used for ChIP) is reported as “no growth defects”. The “doubling time, treated versus untreated population” value in test [5] is recorded as “consistent”.
